Experimental data from patent US5214034A, “Catechol derivatives, and preventive and remedial preparations for regressive disorders in the central nervous system containing the same” (priority 1986, dated 1993).
Read-outs that look alike come from different tables or passages of the source.

Columns and labels:
[1] = test system: rats injected with kainic acid at basal forebrain; test: Promotion of recovery from retention deficits by repeated learning (passive avoidance); format: in vivo, rat (male Sprague-Dawley); parameters: key: latency in seconds to enter dark chamber, capped at 300 s; conditions: Table 9, i.p. 5 mg/kg before each trial
Experimental: (§1) Effects of the derivative on the behavioral parameters of rats injected with kainic acid at basal forebrain were characterized with regard to both prevention against deficits in retention of passive avoidance learning and promotion of recovery from damaged state by repeated learning.
(§2) Male Sprague-Dawley rats (9-10 weeks of age, 200-250 g of weight) were anesthetized with Nembutal (50 mg/kg, i.p.) and placed in a stereotaxic apparatus. Bilateral lesions of the ventral globus pallidus were made by direct stereotaxic application (0.7 mm posterior to bregma, 2.7 mm lateral to the midline, and 7.0 mm ventral to the brain surface) of 0.25 μg of kainic acid in 1 μl of PBS (pH 7.4) to prepare disordered models. Controls were sham-operated rats injected with PBS in place of kainic acid solution.
(§3) Passive avoidance procedures were performed by using a two chambered step-through passive avoidance apparatus with a guillotine door. A 3 mA scrambled shock was delivered to the dark floor grids for 3 seconds as a punishment. Habituation trial was conducted prior to the acquisition trial. Each rats were placed in the illuminated chamber and the guillotine door was raised after 10 seconds. As soon as the rats entered into the dark chamber, the door was lowered. The rats were removed after 10 seconds and returned to their home cages. […] The acquisition trial was performed similarly to the habituation trial. In the former case, a rat was placed in the illuminated room and the door was opened after 10 seconds. The door was shut immediately after the rat entered into the dark room, a scrambled foot shock was applied, and then the animal was removed. The latency to enter the dark chamber after opening the door was recorded for 300 seconds in the retention of passive avoidance. The latency exceeding 300 seconds was calculated as 300 seconds.
The promoting effects on the recovery by repeated training from the damaged state of retention were acessed by using 30 rats injected with kainic acid. Rats were subjected to the acquisition trial 10 days after the operation. The rats were equally divided into 3 groups after 24 hours and injected intrapenitroneally with 5 mg/kg of 4-n-propylcatechol and the derivative (A) (R=--CO--, R=H, R2 =n-propyl) respectively as a saline solution. The remaining 10 rats were intraperitoneally injected with saline alone. The first retention trial was carried out two days after the injection. Rats which entered into the dark chamber within 30 seconds were punished by the scrambled foot shock as a training. On the next day, all animals were administered again the same amount of test derivative or saline. These animals were subjected to the second retention trial two days after the second injection.
Retention trials, punishments and additional administrations were repeated as mentioned above four times in all.

[2] = test system: rats injected with kainic acid at basal forebrain / sham-operated rats; test: Retention of passive avoidance learning: prevention of retention deficits; format: in vivo, rat (male Sprague-Dawley); conditions: Table 8, i.p. 5 mg/kg on days 1, 4, 7
Experimental: as §1, §2, §3
The preventive effects on deficits in retention were estimated by using 60 rats. Thirty rats were injected with kainic acid and other 30 rats were sham-operated with PBS.
Each groups of animals were equally divided into three groups which were received intraperitoneally 5 mg/kg of the derivative (A) (R=2H, R1 =H, R2 =n-propyl, that is, 4-n-propylcatechol), derivative A (R=--CO--, R1 =H, R2 =n-propyl) and saline respectively as a saline solution on one, four and seven days after the operation.
Table 8 illustrates the results obtained by conducting the acquisition trial 10 days after the operation and the retention test after 24 hours.

NGF = NGF production in the central nervous system of normal rats by intraperitoneal injection (NGF content of brain tissue, ELISA); format: in vivo, rat (Wistar male); conditions: Table 7, i.p., three times every other day
Experimental: The derivative (A), e.g. R=Two H, R1 =H and R2 =n-propyl (hereinafter referred to as 4-n-propylcatechol), was administered to normal rats by intraperitoneal injection, and the effect was examined.
4-n-Propylcatechol was administered by intraperitoneal injection 4 times every other day in a dosage of 5 mg/kg. The rats were killed two days after the final administration. The NGF content of each parts in brain was measured. The content was compared with those of control group which was administered saline alone.
A variety of the derivative was administered three times every other day. The content of NGF in the forebrain after 48 hours and 7 days from the final administration was measured and illustrated in Table 7.
Wistar male rats (9-10-week old, 200-250 g of weight) were intraperitoneally injected with the test derivative in a volume of 0.5 ml as a saline solution, emulsion or suspension. Dose and administration times were the same as above. The rats were killed by a hard spinal blow two days after the final administration. Each parts of brain were dissected and subjected to the following treatment under ice cooling.
Each parts of brain were weighed and homogenized for 30 strokes by a Dounce type homogenizer in a homogenization buffer (0.1 M Tris-HCl, containing 2% bovine serum albumin fraction V, 2% gelatin, 1.0 M NaCl, 0.02% NaN3, 2 mM EDTA and 2.6 kiu/ml of aprotinin, pH 7.6) at a concentration of 10% (W/V) (only septum 5% (W/V)). Each homogenate was centrifuged at 100,000 xg for 10 minutes, and 50 μl of supernatant was added with the same amount of a dilution buffer (0.1 M Tris-HCl containing 2% bovine serum albumin fraction V, 0.05% NaN3 and 20 mM CaCl2, pH 7.6). Determination was conducted in accordance with a method of S. Furukawa et al. by using a high sensitivity ELISA system on 8-NGF which was described in J. Neurochem., 40, 734-744 (1983). Lower limit of determination is 0.25 pg/ml. Data are indicated as a mean value ±SE on the NGF content of tissue (pg/mg wet tissue) of five rats.

Acute toxicity (LD50) = conditions: mouse, in vivo
Experimental: The catechol derivative having normal type saturated lower alkyl groups on the ring was administered by intravenous injection (i.v.), intraperitoneal injection (i.p.) or oral route (p.o.) to male ddy mice of 4-week old. The LD50 values (mg/kg) were measured by an ordinary method.

## CCCc1ccc2oc(=O)oc2c1 [R = --CO--, R1 = H, R2 = n-Propyl]
[1]
  Mean latency, 1st retention trial: 46 ± 13
[1]; **P < 0.01
  Mean latency, 4th retention trial: 284 ± 15
[1]; *P < 0.05
  Mean latency, 2nd retention trial: 167 ± 31
  Mean latency, 3rd retention trial: 236 ± 28
[2]; rats operated with kainic acid
  Animals with more than 150 sec of latency: 4 in 10 animals
[2]; rats operated with kainic acid, *P < 0.01 vs control
  Mean latency: 152 ± 29 s
[2]; sham-operated rats
  Animals with more than 150 sec of latency: 10 in 10 animals
  Mean latency: 291 ± 7 s
NGF; 48 hours after final administration
  NGF content after 48 hr.: 1.66 ± 0.23 pg/mg wet tissue of frontal co
NGF; 7 days after final administration
  NGF content after 7 days: 2.23 ± 0.39 pg/mg wet tissue of frontal co
Acute toxicity (LD50); ip, intraperitoneal injection, read-out: LD50 i.p.
  LD50: > 1000 mg/kg
Acute toxicity (LD50); intravenous injection, read-out: LD50 i.v.
  LD50: > 250 mg/kg
Acute toxicity (LD50); oral route, read-out: LD50 p.o.
  LD50: > 2500 mg/kg
